Values joined by “and” are separate entries in the source; they are usually repeats but may differ in a detail not shown here. Identical values can stand only once.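 Test compounds were applied to cells in 96-well plates for 48 hours at 5 doses. Here, GI50 denotes the concentration required for 50% inhibition of growth. TGI denotes the concentration required for complete inhibition of growth.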
How the values were obtained:
Test in all cases: DTP human tumour cell line panel, 48 h
BT-549 breast = test system: BT-549 breast
DU-145 prostate = test system: DU-145 prostate
HCT-15 colon = test system: HCT-15 colon
M14 melanoma = test system: M14 melanoma
MDA-MB-435 = test system: MDA-MB-435
MOLT-4 leukemia = test system: MOLT-4 leukemia
RPMI-8226 leukemia = test system: RPMI-8226 leukemia
SK-MEL-2 melanoma = test system: SK-MEL-2 melanoma
SN12C renal = test system: SN12C renal
UO-31 renal = test system: UO-31 renal

Compound	GI50 (BT-549 breast)	TGI (BT-549 breast)	GI50 (DU-145 prostate)	TGI (DU-145 prostate)	GI50 (HCT-15 colon)	TGI (HCT-15 colon)	GI50 (M14 melanoma)	TGI (M14 melanoma)	GI50 (MDA-MB-435)	TGI (MDA-MB-435)	GI50 (MOLT-4 leukemia)	TGI (MOLT-4 leukemia)	GI50 (RPMI-8226 leukemia)	TGI (RPMI-8226 leukemia)	GI50 (SK-MEL-2 melanoma)	TGI (SK-MEL-2 melanoma)	GI50 (SN12C renal)	TGI (SN12C renal)	GI50 (UO-31 renal)	TGI (UO-31 renal)
FC(F)(F)c1ccc(-c2cnc(-n3cc(COCCN4CCCCC4)nn3)nc2NC2CCCCCC2)cc1	4.33 µM	8.55 µM	4.25 µM	7.94 µM	4020 nM	8.66 µM	4340 nM	9.01 µM	3740 nM	7.76 µM	3.73 µM	9.26 µM	3.85 µM	9.03 µM	4.42 µM	8.22 µM	3.98 µM	7.56 µM	2630 nM	5.97 µM
Cc1cc(Nc2nc(-c3cccnc3)nc3ccccc23)n[nH]1	4.24 µM	> 100 µM	10.7 µM	> 100 µM	512 nM	> 100 µM	2330 nM	> 100 µM	647 nM	> 100 µM	> 57.2 µM	> 100 µM	> 38.5 µM	> 95.1 µM			3.21 µM	> 100 µM	443 nM	> 100 µM
Brc1ccc2[nH]cc(-c3nc(-c4c[nH]c5ncccc45)cs3)c2c1	6.07 µM	18.9 µM	4.14 µM	15.7 µM	2410 nM	6.86 µM	2700 nM	8.6 µM	4040 nM	15.8 µM	2.97 µM	35.6 µM	4.82 µM	63.9 µM	7.11 µM	20.3 µM	4.1 µM	19.4 µM	1160 nM	13.1 µM
CCC(c1ccc(OC)cc1)C(CC)c1ccc(O)c(CN2CCN(C)CC2)c1 (stereo not drawn)	13.2 µM	26.8 µM	11.3 µM	24.1 µM	2660 nM	7.67 µM	1990 nM	3.8 µM	2720 nM	9.4 µM	6.01 µM	20.4 µM	2.92 µM	9.5 µM	2.85 µM	6.46 µM	5.7 µM	20.9 µM	1830 nM	7.32 µM
COc1ccc(C(c2ccc(OCCN(C)C)cc2)c2cc3ccccc3c3ccccc23)cc1 (stereo not drawn)	1.78 µM	3.35 µM	1.77 µM	3.37 µM	1280 nM	2.69 µM	1730 nM	3.25 µM	1710 nM	3.14 µM	1.58 µM	3.42 µM	1.93 µM	4.25 µM	1.54 µM	2.97 µM	1.74 µM	3.25 µM	1490 nM	2.9 µM
COc1cccc(-c2nn(-c3ccccc3)cc2-c2ccnc(NCCNC(=O)Nc3cccc(C(F)(F)F)c3)c2)c1	3.4 µM	13.1 µM	4.16 µM	14.9 µM	1700 nM	3.71 µM	2790 nM	10.6 µM	1750 nM	3.38 µM	2.02 µM	4.81 µM	2.23 µM	5.54 µM	1.69 µM	3.6 µM	1.95 µM	4.06 µM	1600 nM	4.15 µM
CC(=O)N1N=C(c2ccc(Nc3ccnc4cc(Cl)ccc34)cc2)CC1c1ccc(Cl)cc1 (stereo not drawn)	5.4 µM	> 100 µM	> 100 µM	> 100 µM	3330 nM	> 100 µM	5240 nM	> 100 µM	566 nM	> 100 µM	2.42 µM	> 100 µM			> 100 µM	> 100 µM	30.7 µM	> 100 µM	3870 nM	> 100 µM
COc1ccc2c(C3(c4cn(C)c5cc(OC)ccc45)C(=O)Nc4ccc(Cl)cc43)cn(C)c2c1	5.26 µM	83.4 µM	4.84 µM	> 100 µM	4500 nM	> 100 µM	4190 nM	> 100 µM	2510 nM	7.77 µM	2.58 µM	8.01 µM	3.94 µM	> 100 µM	2.97 µM	6.55 µM	1.91 µM	4.63 µM	1480 nM	> 100 µM
COc1cccc(/C=N/NC(=S)NC2CC3CCC2C3)c1O (stereo not drawn)	14.5 µM	57.3 µM	9.79 µM	22.8 µM	1070 nM	> 100 µM	9920 nM	31.9 µM	16100 nM	78.9 µM	10.5 µM	48.3 µM	11.1 µM	49.7 µM	18.2 µM	34.9 µM	5.09 µM	22.9 µM	2300 nM	9.93 µM
N[C@@H]1C(=O)N2C(C(=O)OC(c3ccccc3)c3ccccc3)=C(CCl)CS[C@H]12	25.4 µM	62.8 µM	15 µM	> 100 µM	37900 nM	> 100 µM	34800 nM	> 96.2 µM	35100 nM	> 100 µM	11.3 µM	> 71.2 µM	16.8 µM	50.8 µM	54.2 µM	> 100 µM	41 µM	> 100 µM	47300 nM	> 100 µM
COc1ccc2c(c1)CC[C@@H]1[C@@H]2CC[C@]2(C)[C@@H](NC(=O)/C=C/c3ccc(O)c(O)c3)CC[C@@H]12	5.56 µM	20.3 µM	12.6 µM	30.4 µM	3200 nM	15.4 µM	2260 nM	6.98 µM	3430 nM	11.1 µM			1.08 µM	9.79 µM	2.77 µM	11.7 µM	2.61 µM	9.3 µM	1260 nM	15 µM
O=C1C2=C(c3ccccc31)C(c1ccccc1)N1C(=O)CSC1=N2 (stereo not drawn)		66.5 µM		> 100 µM		98.1 µM		> 96.6 µM		37.3 µM		> 100 µM		> 100 µM		> 100 µM		> 94.9 µM		> 100 µM
Oc1ccc(O)c(-c2cc(-c3ccc(Cl)cc3)nn2-c2ccccc2)c1	21 µM	52.3 µM	26.1 µM	48.3 µM	12500 nM	25.5 µM	2890 nM	6.53 µM	14900 nM	32.1 µM	3.3 µM	> 100 µM	2.29 µM	7.03 µM	23.4 µM	> 100 µM	2.88 µM	7.19 µM	12200 nM	> 100 µM
COc1ccccc1C1=C(Nc2ccccc2)C(=O)NC1=O	> 25 µM	> 25 µM	> 25 µM	> 25 µM	> 25000 nM	> 25 µM	> 25000 nM	> 25 µM	> 25000 nM	> 25 µM	> 25 µM	> 25 µM	> 25 µM	> 25 µM	> 25 µM	> 25 µM	> 25 µM	> 25 µM	> 25000 nM	> 25 µM
CCOC(=O)c1c(C)n(Cc2ccccc2)c2c1cc(O)c1[nH]c(Cc3ccccc3)nc12	2.39 µM	28.8 µM	20.5 µM	> 57.7 µM	4660 nM	> 100 µM	> 50700 nM	> 100 µM	> 42800 nM	> 100 µM			11.5 µM	> 100 µM	26.7 µM	> 100 µM	10.5 µM	39.8 µM	> 32900 nM	> 51.4 µM
COc1cc2c(cc1OC)C(Sc1ccc(SC)cc1)c1c(nc(N)c(C#N)c1N)O2 (stereo not drawn)	1.38 µM	2.67 µM	1.75 µM	3.17 µM	1440 nM	2.91 µM	1740 nM	3.24 µM	1750 nM	3.23 µM	1.07 µM	4.08 µM	2.54 µM	6.46 µM	1.48 µM	2.9 µM			1330 nM	2.6 µM
CC1=C(/C=C/C(C)=C/C=C/C(C)=C/C=N/NC(=S)NC(=S)N/N=C/C=C(C)/C=C/C=C(C)/C=C/C2=C(C)CCCC2(C)C)C(C)(C)CCC1	4.85 µM and 1.69 µM	11.5 µM and 4.77 µM	5.79 µM and 2.55 µM	12.5 µM and 8.77 µM	2680 nM and 1890 nM	9.82 µM and 8.2 µM	1240 nM and 918 nM	3.73 µM and 1.74 µM	1170 nM and 840 nM	4.49 µM and 2.14 µM	1.16 µM and 0.667 µM	6.09 µM and 2.45 µM	3.31 µM and 1.29 µM	23.1 µM and 4.55 µM	5.79 µM and 1.82 µM	12.5 µM and 6.97 µM	1.56 µM and 1.07 µM	6.34 µM and 3.32 µM	1840 nM and 1520 nM	8.94 µM and 7.32 µM
Nc1nc(N)c(C=Nc2ccc(Br)cc2)c(Nc2ccc(Br)cc2)n1	12.9 µM	25.5 µM	12.3 µM	28.6 µM	7440 nM	34.4 µM	9590 nM	21.4 µM	10500 nM	27.6 µM	10.7 µM	28.5 µM	16.6 µM	38.7 µM	10.2 µM	23 µM	8.19 µM	33.6 µM	6550 nM	28.1 µM
COc1ccc(/C=c2\sc3n(c2=O)C2C(NN=3)N(C)C(=O)N2C)cc1 (stereo not drawn)	0.589 µM	> 100 µM	1.32 µM	> 100 µM	428 nM	> 100 µM	344 nM	5.17 µM	200 nM	0.759 µM	1.24 µM	> 100 µM	0.455 µM	> 19.6 µM	2.31 µM	> 100 µM	1.63 µM	> 100 µM	1860 nM	> 100 µM
COC1=C(C)C(=O)c2c(c(CCCl)c3n2CCC3O)C1=O (stereo not drawn)	0.247 µM	1.09 µM	0.039 µM	1.9 µM	220 nM	4.4 µM	264 nM	1.21 µM	1240 nM	2.79 µM	7.37 µM	99.4 µM	3.08 µM	21.8 µM	0.376 µM	1.57 µM	0.694 µM	14.2 µM	545 nM	2.42 µM
CC(=O)OC1=CC2=CC[C@H]3[C@@H]4CCC(=O)[C@@]4(C)CC(=O)[C@]3(S)[C@@]2(C)CC1		> 100 µM		> 100 µM		> 100 µM		> 100 µM		> 100 µM		37.4 µM		53.5 µM		> 100 µM		> 100 µM		> 100 µM
COc1cccc(-c2ccc3c(c2)C2CCN(Cc4ccccc4)C3C2)c1 (stereo not drawn)	6.12 µM	21.1 µM	16.4 µM	43.9 µM	4860 nM	19.7 µM	5780 nM	24.8 µM	2430 nM	7.29 µM	7.17 µM	40.5 µM	4.93 µM	23.6 µM	5.04 µM	18 µM	11.2 µM	30.3 µM	6790 nM	21.6 µM
NC1=NC(c2ccc(Cl)cc2)N(c2ccc(S(N)(=O)=O)cc2)C(N)=N1 (stereo not drawn)		> 100 µM		> 100 µM		> 100 µM		> 100 µM		> 100 µM		> 100 µM		> 100 µM		> 100 µM		> 100 µM		> 100 µM
CCOc1cc(Br)c(C(C)NC(=O)c2cccc(OC)c2)cc1OCC (stereo not drawn)	13.2 µM	> 84.1 µM	26.4 µM	> 100 µM	5820 nM	> 100 µM	4380 nM	> 100 µM	2160 nM	6.1 µM	5.64 µM	> 100 µM	13.9 µM	> 92.1 µM	5.54 µM	> 76.7 µM	25.2 µM	> 100 µM	12100 nM	> 100 µM
Cc1cc2cc3ccc(N(C)C)cc3nc2cc1N	1.64 µM	3.82 µM	0.437 µM	2.45 µM	1400 nM	17.8 µM	682 nM	2.14 µM	703 nM	2.28 µM	0.438 µM	9.31 µM	0.637 µM	5.55 µM	0.392 µM	1.6 µM	0.411 µM	4.54 µM	642 nM	5.01 µM
COc1cccc(CSCC(=O)O)c1		> 100 µM		> 100 µM		> 100 µM		> 100 µM		> 100 µM				> 100 µM		> 100 µM		> 100 µM		> 100 µM
CC(C)(C)c1ccc(OC(=O)Nc2ccc(O)c(C(=O)O)c2)cc1		> 100 µM		> 100 µM		> 100 µM		> 100 µM		> 100 µM		> 100 µM		> 100 µM		> 100 µM		> 100 µM		

Reference: PubChem BioAssay (NCI)
